Experimental data from patent publication US20100130549A1, “PSYCHOTROPIC COMPOUNDS, COMPOSITIONS AND METHODS OF USE” (priority 2007, published 2010).

Assays:
Adrenergic α1B = target: T1, Adrenergic α1B (Rattus norvegicus, UniProt P15823); assay: Radioligand binding assay, Adrenergic α1B
T1 sequence (P15823 1-515): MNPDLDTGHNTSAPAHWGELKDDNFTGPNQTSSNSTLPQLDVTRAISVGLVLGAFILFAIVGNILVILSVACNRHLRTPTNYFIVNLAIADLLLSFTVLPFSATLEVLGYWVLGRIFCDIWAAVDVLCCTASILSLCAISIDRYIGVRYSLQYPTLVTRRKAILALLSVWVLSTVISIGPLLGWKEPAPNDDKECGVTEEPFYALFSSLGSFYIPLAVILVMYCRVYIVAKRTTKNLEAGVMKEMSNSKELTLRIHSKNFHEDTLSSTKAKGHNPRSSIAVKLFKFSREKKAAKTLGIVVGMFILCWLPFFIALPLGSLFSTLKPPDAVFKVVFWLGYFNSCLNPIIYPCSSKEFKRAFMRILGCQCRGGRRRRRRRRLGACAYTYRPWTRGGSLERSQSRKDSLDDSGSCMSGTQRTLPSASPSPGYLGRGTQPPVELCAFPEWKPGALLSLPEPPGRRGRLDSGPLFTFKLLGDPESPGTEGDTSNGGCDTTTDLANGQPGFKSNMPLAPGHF
Excerpt: (§1) . Table 1 provides data produced via a receptor binding assay and IC50 and Ki determination. […] In addition, the compound of formula (Ia) has a potent DAT inhibition, which is indicative of dopaminergic uptake inhibition and increased DA activity. In addition to the effect on SERT and DAT, the compound of formula (Ia) inhibited the transporter of Norepinephrine (NET), and several neurotransmitter's receptors like alpha2A and alpha2C receptors, alpha 1A and alphal C, 5HT2A and 5HT2C, signal histamine2 and dopamine D1. This specific profile is in line with the data on antidepressant, anxiolytic and moderate neuro-stimulation activity observed in the animal model studies.
(§2) With regard to the data provided in Table 1, the biochemical assay results are presented as the percent inhibition of specific binding or activity throughout the report. For primary assays, only the lowest concentration with a significant response judged by the assays’ criteria, is shown in this summary. […] Unless otherwise requested, primary screening in duplicate with quantitative data (e.g., IC50±SEM, Ki±SEM and nH) are shown.

Sigma σ1 = Sigma σ1 (Homo sapiens, UniProt Q99720); assay: Radioligand binding assay, Sigma σ1
Chain of Sigma σ1 (Q99720 whole entry): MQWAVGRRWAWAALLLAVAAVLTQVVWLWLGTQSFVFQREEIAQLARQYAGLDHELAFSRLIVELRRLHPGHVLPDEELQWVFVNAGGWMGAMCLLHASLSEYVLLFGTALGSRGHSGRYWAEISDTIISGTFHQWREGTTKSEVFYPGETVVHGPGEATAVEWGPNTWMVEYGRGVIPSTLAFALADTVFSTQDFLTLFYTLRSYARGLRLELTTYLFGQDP
Excerpt: as §1, §2

Dopamine D1 = Dopamine D1 (Homo sapiens, UniProt P21728); assay: Radioligand binding assay, Dopamine D1
Chain of Dopamine D1 (P21728 whole entry): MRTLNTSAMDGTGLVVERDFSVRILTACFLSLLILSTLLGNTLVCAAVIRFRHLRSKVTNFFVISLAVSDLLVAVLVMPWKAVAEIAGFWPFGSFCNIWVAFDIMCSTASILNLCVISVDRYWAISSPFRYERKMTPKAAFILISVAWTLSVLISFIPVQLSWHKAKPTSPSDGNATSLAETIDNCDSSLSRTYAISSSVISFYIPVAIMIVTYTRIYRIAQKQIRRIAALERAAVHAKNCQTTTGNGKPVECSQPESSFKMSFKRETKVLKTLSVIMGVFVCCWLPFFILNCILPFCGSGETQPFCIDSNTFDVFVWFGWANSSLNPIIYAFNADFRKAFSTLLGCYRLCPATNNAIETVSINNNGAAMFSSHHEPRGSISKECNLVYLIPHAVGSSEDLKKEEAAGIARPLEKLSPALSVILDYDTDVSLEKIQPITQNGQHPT
Excerpt: as §1, §2

Adrenergic α1A = target: T2, Adrenergic α1A (Rattus norvegicus, UniProt P43140); assay: Radioligand binding assay, Adrenergic α1A
T2 sequence (P43140 1-466): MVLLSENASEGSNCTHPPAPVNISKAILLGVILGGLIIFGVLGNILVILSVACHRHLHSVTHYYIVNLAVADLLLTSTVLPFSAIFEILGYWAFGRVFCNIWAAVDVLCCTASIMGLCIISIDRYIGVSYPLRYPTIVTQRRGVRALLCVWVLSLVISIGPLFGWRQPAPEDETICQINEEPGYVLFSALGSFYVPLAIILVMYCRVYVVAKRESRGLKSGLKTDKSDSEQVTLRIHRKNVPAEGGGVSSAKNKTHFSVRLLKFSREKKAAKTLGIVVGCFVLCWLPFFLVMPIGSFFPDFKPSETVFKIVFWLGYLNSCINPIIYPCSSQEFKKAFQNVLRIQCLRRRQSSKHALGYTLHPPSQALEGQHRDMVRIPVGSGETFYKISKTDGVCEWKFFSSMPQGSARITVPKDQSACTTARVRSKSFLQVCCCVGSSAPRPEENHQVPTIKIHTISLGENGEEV
Excerpt: as §1, §2

[1] = target: T3, Serotonin (5-Hydroxytryptamine) 5-HT2C (Homo sapiens, UniProt P28335); assay: Radioligand binding assay, 5-HT2C
T3 sequence (P28335 33-458): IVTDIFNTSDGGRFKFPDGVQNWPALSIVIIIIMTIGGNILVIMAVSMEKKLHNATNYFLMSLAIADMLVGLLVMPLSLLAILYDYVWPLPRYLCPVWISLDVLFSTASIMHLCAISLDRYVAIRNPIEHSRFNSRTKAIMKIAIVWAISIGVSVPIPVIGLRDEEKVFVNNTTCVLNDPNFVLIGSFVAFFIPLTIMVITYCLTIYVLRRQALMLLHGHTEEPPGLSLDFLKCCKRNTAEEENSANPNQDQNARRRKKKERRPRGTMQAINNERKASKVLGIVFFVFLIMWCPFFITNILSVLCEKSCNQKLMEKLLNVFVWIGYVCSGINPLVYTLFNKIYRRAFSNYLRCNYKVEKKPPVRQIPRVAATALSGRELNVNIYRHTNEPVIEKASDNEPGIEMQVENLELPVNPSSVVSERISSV
Excerpt: as §1, §2

[2] = target: Trasnporter, Dopamine (DAT) (Homo sapiens, UniProt Q01959); assay: Radioligand binding assay, Dopamine transporter
Chain of Trasnporter, Dopamine (DAT) (Q01959 whole entry): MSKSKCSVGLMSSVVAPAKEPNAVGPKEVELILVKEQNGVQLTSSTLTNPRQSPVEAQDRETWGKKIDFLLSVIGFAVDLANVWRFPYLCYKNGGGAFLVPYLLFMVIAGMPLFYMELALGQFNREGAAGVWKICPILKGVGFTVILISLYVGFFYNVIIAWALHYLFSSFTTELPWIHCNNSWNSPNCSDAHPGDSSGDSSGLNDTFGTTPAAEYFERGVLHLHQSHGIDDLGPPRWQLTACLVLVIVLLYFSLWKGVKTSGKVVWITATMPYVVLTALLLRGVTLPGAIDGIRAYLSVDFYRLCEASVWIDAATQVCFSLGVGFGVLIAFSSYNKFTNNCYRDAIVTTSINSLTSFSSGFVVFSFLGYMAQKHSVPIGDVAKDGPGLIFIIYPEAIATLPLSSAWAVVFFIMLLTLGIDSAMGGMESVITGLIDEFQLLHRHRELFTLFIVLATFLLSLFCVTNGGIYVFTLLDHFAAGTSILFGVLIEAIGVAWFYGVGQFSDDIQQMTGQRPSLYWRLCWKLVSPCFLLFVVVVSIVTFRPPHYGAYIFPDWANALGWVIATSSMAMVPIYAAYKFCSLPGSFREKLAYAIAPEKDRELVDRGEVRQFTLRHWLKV
Excerpt: as §2

ICR mice = assay: Acute toxicity, oral administration; type: in vivo; settings: for stimulation behavior (number of rearings): acute oral
Protocol: FIG. 11B illustrates the effect of administering the compound of formula (Ia) on stimulation in ICR mice.
Acute toxicity was assessed in male BALB/c mice that had been orally administered the compound of formula (Ta). The compound of formula (Ia) was administered orally to mice at doses of 20, 25, 75, and 100 mg/kg (4 animals/group). Animals were followed for behavioral changes such as stimulation (number of rearings), and sedation, after 24, 48 and 72 hr. Body weight was determined up to 7 days after drug administration.

`CN[C@H]1CC[C@@H](c2ccc(Cl)c(Cl)c2)c2ccc(C#CCCCO)cc21` [compound Ia, (1S-cis)-4-(3,4-dichlorophenyl)-7-(5-hydroxy-1-pentyn-1-yl)-1,2,3,4-tetrahydro-N-methyl-1-naphthalenamine hydroiodide] showed an IC50 (Adrenergic α1B) of 562 nM, a nH (Adrenergic α1B) of 1.08 and an inhibition at 1 µM (Adrenergic α1B; 1 μM) of 63%. It also gave a Ki (Adrenergic α1B; read-out: K1) of 311 nM, an IC50 (Sigma σ1) of 837 nM and a nH (Sigma σ1) of 0.627. It also gave an inhibition at 3 µM (Sigma σ1; 3 μM) of 69%, a Ki (Sigma σ1; read-out: K1) of 352 nM and an IC50 (Dopamine D1) of 2700 nM. The nH (Dopamine D1) was 1.25, the inhibition at 10 µM (Dopamine D1; 10 μM) was 84% and the Ki (Dopamine D1; read-out: K1) was 1350 nM. It also gave an IC50 (Adrenergic α1A) of 4200 nM, a nH (Adrenergic α1A) of 1.34 and an inhibition at 10 µM (Adrenergic α1A; 10 μM) of 73%. For the same compound, the Ki (Adrenergic α1A; read-out: K1) was 1700 nM, the IC50 [1] was 9160 nM and the nH [1] was 2.15. The inhibition at 10 µM ([1]; read-out: % INH.) was 54%, the Ki ([1]; read-out: K1) was 4800 nM and the IC50 [2] was under 300 nM. The inhibition at 0.03 µM ([2]; 0.03 μM) was 51%, the Ki ([2]; read-out: DAT final Ki) was 29 nM and the survival (ICR mice; acute oral up to 100 mg/kg) was “all animals survived”. The tolerability (ICR mice; acute oral up to 100 mg/kg) was “well tolerated”, the “stimulation behavior (number of rearings)” value (ICR mice; 24 and 48hr after administration) was “significant increase” and the “stimulation behavior (number of rearings)” value (ICR mice; after 72 hr) was “normalization”.
